Results: ChEMBL document CHEMBL4304803, “C-terminal modulators of heat shock protein of 90 kDa (HSP90): State of development and modes of action” (Bioorg Med Chem, 2019)

Biological target: Heat shock protein HSP90 (Homo sapiens, UniProt P07900+P08238)
Assay: Binding affinity to HSP90 CTD (unknown origin) by circular dichroism spectroscopy
Format: protein assay

## CC[C@H](C)[C@@H](ONC(=O)[C@H](ONC(=O)[C@@H](Cc1ccccc1)ONC(=O)[C@@H](Cc1ccccc1)ONC(=O)OCc1ccccc1)[C@@H](C)CC)C(=O)NO[C@H](CC(C)C)C(=O)NO[C@H](CC(C)C)C(N)=O
  Kd: 27.4 µM
